{"source": "patent US20230364111A1", "about": "(priority 2020, published 2023)", "key": {"in vitro [1]": {"experiment": "in vitro", "settings": "African green monkey"}, "[2]": {"test_system": "double-membrane vesicles (DMVs) in SARS-CoV-2-infected cells", "experiment": "Electron microscopy of double-membrane vesicle (DMV) formation", "type": "cell-based", "settings": "10 μM Oxy210, Oxy232 (10 μM)"}, "[3]": {"test_system": "SARS-CoV-2 TY8-612 (South Africa strain)", "experiment": "SARS-CoV-2 TY8-612 strain infection in VeroE6/TMPRSS2 cells", "type": "cell-based", "settings": "viral RNA 24 h post-inoculation", "protocol": "(§1) FIGS. 12A-12C depict dose-response curves for Oxy232. (FIG. 12A) Secreted viral RNA in the VeroE6 culture supernatant 24 h post-inoculation was quantified by real-time RT-PCR. Cell viability of Oxy232 treated cells evaluated with an MTT assay. (FIG. 12B) Secreted viral RNA of 3 SARS-CoV-2 strains in the VeroE6 culture supernatant 24 h post-inoculation was quantified by real-time RT-PCR. (FIG. 12C) Calu-3 (ATCC) cells were pretreated with Oxy232 for 2 hours prior to continuous infection with SARS-CoV-2 (isolate USA WA1/2020) at MOI=0.5. 48 h post-infection, cells were fixed, immune-strained, and imaged by automated microscopy for infection (dsRNA+ cells/total cell number) and cell number.\n(§2) According to a previously published report (Ohashi et al., Identification of Anti-Severe Acute Respiratory Syndrome-Related Coronavirus 2 (SARS-CoV-2) Oxysterol Derivatives In Vitro. Int J Mol Sci. 2021; 22(6):3163. PMCID: PMC8003796) inventors have tested a collection of naturally occurring and semisynthetic oxysterol derivatives in a SARS-CoV-2 cell culture infection assay in VeroE6/TMPRSS2 cells. […] See, Ohashi et al., Int J Mol Sci. 2021; 22(6):3163 and Dittmar et al. Drug repurposing screens reveal cell-type-specific entry pathways and FDA-approved drugs active against SARS-Cov-2. Cell Rep. […] PMCID: PMC7985926. […]"}, "Calu-3 cells": {"test_system": "Calu-3 cells", "settings": "at higher concentrations; automated microscopy"}, "TGFβ signaling": {"test_system": "TGFβ signaling", "type": "cell-based", "settings": "10 μM; NIH3T3 cells stimulated with 20 ng/mL TGFβ"}, "VeroE6/TMPRSS2 cells": {"test_system": "VeroE6/TMPRSS2 cells", "settings": "MTT assay; 24 h; VeroE6/TMPRSS2 cells"}, "SARS-CoV-2 Wk-521 strain": {"test_system": "SARS-CoV-2 Wk-521 strain", "experiment": "SARS-CoV-2 infection assay, viral RNA in culture supernatant (VeroE6/TMPRSS2 cells)", "type": "cell-based"}, "[4]": {"test_system": "SARS-CoV-2 (isolate USA WA1/2020)", "experiment": "SARS-CoV-2 infection of Calu-3 cells (dsRNA+ cells, automated microscopy)", "type": "cell-based", "protocol": "as §1\nAccording to a previously published report (Ohashi et al., Identification of Anti-Severe Acute Respiratory Syndrome-Related Coronavirus 2 (SARS-CoV-2) Oxysterol Derivatives In Vitro. Int J Mol Sci. 2021; 22(6):3163. PMCID: PMC8003796) inventors have tested a collection of naturally occurring and semisynthetic oxysterol derivatives in a SARS-CoV-2 cell culture infection assay in VeroE6/TMPRSS2 cells. […] See, Ohashi et al., Int J Mol Sci. 2021; 22(6):3163 and Dittmar et al. Drug repurposing screens reveal cell-type-specific entry pathways and FDA-approved drugs active against SARS-Cov-2. Cell Rep. […] PMCID: PMC7985926. […] Without wishing to be bound by a theory, biological activities of oxysterols, including measures of cell viability, can heavily depend on in vitro assay conditions, such as the fetal bovine serum concentration or the duration of pretreatment with the compounds, among other factors, that may not translate to the in vivo safety of the compounds."}, "Hedgehog (Hh) signaling": {"test_system": "Hedgehog (Hh) signaling", "type": "cell-based", "settings": "10 μM; NIH3T3 cells with CAPAN-1 conditioned medium containing Shh"}, "[5]": {"settings": "for Mean Oxy232 Levels in Lung Tissue (ng/g) / Mean Oxy232 Levels in Lung Tissue (μM): oral 200 mg/kg"}, "[6]": {"test_system": "SARS-CoV-2 TY7-501 (Brazil strain)", "experiment": "SARS-CoV-2 TY7-501 strain infection in VeroE6/TMPRSS2 cells", "type": "cell-based", "settings": "viral RNA 24 h post-inoculation", "protocol": "as §1, §2"}, "in vitro [7]": {"experiment": "in vitro", "settings": "human"}}, "note": "“Also recorded” adds a separate entry of the source. Like-named read-outs stand apart in the source and are kept apart here.", "data": [{"compound": "CC[C@@](O)(CCc1cccnc1)[C@H]1CC[C@H]2[C@@H]3CC[C@H]4C[C@@H](O)CC[C@]4(C)[C@H]3CC[C@]12C", "note": "[Oxy232, (3S,5S,8R,9S,10S,13S,14S,17S)-17-((R)-3-hydroxy-1-(pyridin-3-yl)pentan-3-yl)-10,13-dimethylhexadecahydro-1H-cyclopenta[a]phenanthren-3-ol]", "values": [{"measurement": "CC50", "setting": "in vitro [1]", "value": "> 15", "unit": "µM"}, {"measurement": "DMV formation in SARS-CoV-2-infected cells", "setting": "[2]", "value": "inhibit DMV formation"}, {"measurement": "activity against the TY8-612 strain", "setting": "[3]", "value": "undiminished activity"}, {"measurement": "cell viability in Calu-3 cells", "setting": "Calu-3 cells", "value": "do affect cell viability"}, {"measurement": "TGFβ inhibitory properties (CTGF mRNA)", "setting": "TGFβ signaling", "value": "devoid of significant TGFβ pathway inhibitory properties"}, {"measurement": "CC50", "setting": "VeroE6/TMPRSS2 cells", "value": "> 15", "unit": "µM"}, {"measurement": "viral RNA in the culture supernatant", "setting": "SARS-CoV-2 Wk-521 strain; 24 h post-inoculation, natural oxysterols up to 30 μM, semi-synthetic up to 15 μM", "value": "reduced viral RNA level in a dose-dependent manner"}, {"measurement": "IC50", "setting": "SARS-CoV-2 Wk-521 strain; Severe acute respiratory syndrome coronavirus 2, Vero C1008, read-out: IC50 VeroE6 cells (ng/mL)", "value": 2370, "unit": "ng/mL"}, {"measurement": "IC90", "setting": "SARS-CoV-2 Wk-521 strain; Severe acute respiratory syndrome coronavirus 2, Vero C1008, read-out: IC90 VeroE6 cells (ng/mL), Table 6, same value in mass units", "value": 3250, "unit": "ng/mL"}, {"measurement": "IC50", "setting": "SARS-CoV-2 Wk-521 strain; Severe acute respiratory syndrome coronavirus 2, Vero C1008, SARS-CoV-2, VeroE6, read-out: IC50 (VeroE6)", "value": 5.4, "unit": "µM"}, {"measurement": "IC90", "setting": "SARS-CoV-2 Wk-521 strain; Severe acute respiratory syndrome coronavirus 2, Vero C1008, SARS-CoV-2, VeroE6, read-out: IC90 (VeroE6)", "value": 7.8, "unit": "µM"}, {"measurement": "IC50", "setting": "SARS-CoV-2 Wk-521 strain; Severe acute respiratory syndrome coronavirus 2, Vero C1008, Table 6, read-out: IC50 VeroE6 cells", "value": 5.4, "unit": "µM"}, {"measurement": "IC90", "setting": "SARS-CoV-2 Wk-521 strain; Severe acute respiratory syndrome coronavirus 2, Vero C1008, Table 6, read-out: IC90 VeroE6 cells", "value": 7.8, "unit": "µM"}, {"measurement": "IC90", "setting": "SARS-CoV-2 Wk-521 strain; Severe acute respiratory syndrome coronavirus 2, VeroE6/TMPRSS2, 24 h, SARS-CoV-2 viral RNA in culture supernatant, 24 h post-inoculation, VeroE6/TMPRSS2 cells, read-out: IC90", "value": 7.8, "unit": "µM"}, {"measurement": "IC50", "setting": "SARS-CoV-2 Wk-521 strain; Severe acute respiratory syndrome coronavirus 2, SARS-CoV-2 viral RNA in culture supernatant, 24 h post-inoculation, VeroE6/TMPRSS2 cells, read-out: IC50", "value": 5.4, "unit": "µM"}, {"measurement": "IC90 VeroE6 cells", "setting": "SARS-CoV-2 Wk-521 strain; Table 6, same value in mass units", "value": 3.429, "unit": "µg/mL"}, {"measurement": "reduction of viral RNA production at the maximum", "setting": "SARS-CoV-2 Wk-521 strain; at 15 μM", "value": 99.9, "unit": "%"}, {"measurement": "anti-SARS-CoV-2 activity", "setting": "SARS-CoV-2 Wk-521 strain; cell-based assay, VeroE6/TMPRSS2", "value": "superior anti-SARS-CoV-2 activity; also recorded: anti-SARS-CoV-2 activity comparable to Oxy210; also recorded: significant anti SARS-CoV-2 activity"}, {"measurement": "viral RNA levels in the culture supernatant", "setting": "SARS-CoV-2 Wk-521 strain; oxysterol derivatives at 10 or 30 uM, 24 h post-inoculation, VeroE6/TMPRSS2", "value": "strongly reduced viral RNA levels"}, {"measurement": "SARS-CoV-2 replication", "setting": "SARS-CoV-2 Wk-521 strain; statement in words", "value": "drastically reduced SARS-CoV-2 replication"}, {"measurement": "viral inhibition", "setting": "SARS-CoV-2 Wk-521 strain; tested in multiple studies, VeroE6/TMPRSS2", "value": "greater than 99%"}, {"measurement": "IC50", "setting": "[4]; Severe acute respiratory syndrome coronavirus 2, Calu-3, read-out: IC50 Calu-3 cells (ng/ml)", "value": 3050, "unit": "ng/mL"}, {"measurement": "IC90", "setting": "[4]; Severe acute respiratory syndrome coronavirus 2, Calu-3, read-out: IC90 Calu-3 cells (ng/ml)", "value": 5920, "unit": "ng/mL"}, {"measurement": "IC50", "setting": "[4]; Severe acute respiratory syndrome coronavirus 2, Calu-3, Table 6, read-out: IC50 Calu-3 cells", "value": 6.9, "unit": "µM"}, {"measurement": "IC90", "setting": "[4]; Severe acute respiratory syndrome coronavirus 2, Calu-3, Table 6, read-out: IC90 Calu-3 cells", "value": 13.5, "unit": "µM"}, {"measurement": "IC50", "setting": "[4]; Severe acute respiratory syndrome coronavirus 2, SARS-CoV-2 USA WA1/2020, MOI=0.5, 48 h post-infection, Calu-3, read-out: IC50 (Calu-3)", "value": 6.9, "unit": "µM"}, {"measurement": "IC90", "setting": "[4]; Severe acute respiratory syndrome coronavirus 2, SARS-CoV-2 USA WA1/2020, MOI=0.5, 48 h post-infection, Calu-3, read-out: IC90 (Calu-3)", "value": 13.5, "unit": "µM"}, {"measurement": "antiviral activity in Calu-3 human lung epithelial cells", "setting": "[4]; USA WA1/2020 isolate, at NIAID", "value": "confirmed the antiviral activity"}, {"measurement": "inhibitory activity toward Hh signaling (Gli1 mRNA)", "setting": "Hedgehog (Hh) signaling", "value": "retains inhibitory activity toward Hh signaling"}, {"measurement": "Mean Oxy232 Levels in Lung Tissue (ng/g)", "setting": "[5]; mice, time 0 h", "value": 0, "unit": "ng/g"}, {"measurement": "Mean Oxy232 Levels in Lung Tissue (μM)", "setting": "[5]; mice, time 0 h", "value": 0, "unit": "µM"}, {"measurement": "Mean Oxy232 Levels in Lung Tissue (ng/g)", "setting": "[5]; mice, time 0.25 h", "value": 1500, "unit": "ng/g"}, {"measurement": "Mean Oxy232 Levels in Lung Tissue (μM)", "setting": "[5]; mice, time 0.25 h", "value": 3.41, "unit": "µM"}, {"measurement": "Mean Oxy232 Levels in Lung Tissue (ng/g)", "setting": "[5]; mice, time 0.5 h", "value": 8055, "unit": "ng/g"}, {"measurement": "Mean Oxy232 Levels in Lung Tissue (μM)", "setting": "[5]; mice, time 0.5 h", "value": 18.32, "unit": "µM"}, {"measurement": "Mean Oxy232 Levels in Lung Tissue (ng/g)", "setting": "[5]; mice, time 1 h", "value": 9427, "unit": "ng/g"}, {"measurement": "Mean Oxy232 Levels in Lung Tissue (μM)", "setting": "[5]; mice, time 1 h", "value": 21.44, "unit": "µM"}, {"measurement": "Mean Oxy232 Levels in Lung Tissue (ng/g)", "setting": "[5]; mice, time 2 h", "value": 7764, "unit": "ng/g"}, {"measurement": "Mean Oxy232 Levels in Lung Tissue (μM)", "setting": "[5]; mice, time 2 h", "value": 17.66, "unit": "µM"}, {"measurement": "Mean Oxy232 Levels in Lung Tissue (ng/g)", "setting": "[5]; mice, time 4 h", "value": 2916, "unit": "ng/g"}, {"measurement": "Mean Oxy232 Levels in Lung Tissue (μM)", "setting": "[5]; mice, time 4 h", "value": 6.63, "unit": "µM"}, {"measurement": "Mean Oxy232 Levels in Lung Tissue (ng/g)", "setting": "[5]; mice, time 8 h", "value": 673, "unit": "ng/g"}, {"measurement": "Mean Oxy232 Levels in Lung Tissue (μM)", "setting": "[5]; mice, time 8 h", "value": 1.53, "unit": "µM"}, {"measurement": "Mean Oxy232 Levels in Lung Tissue (ng/g)", "setting": "[5]; mice, time 24 h", "value": 122, "unit": "ng/g"}, {"measurement": "Mean Oxy232 Levels in Lung Tissue (μM)", "setting": "[5]; mice, time 24 h", "value": 0.28, "unit": "µM"}, {"measurement": "tolerability of oral dosing", "setting": "[5]; oral dosing in mice", "value": "well tolerated"}, {"measurement": "concentrations in lung tissue homogenate compared to plasma", "setting": "[5]; single dose 200 mg/kg, mice", "value": "generally higher than in plasma"}, {"measurement": "time lung homogenate concentration above Calu-3 IC50 levels", "setting": "[5]; single dose 200 mg/kg, mice", "value": "more than 3.5 h"}, {"measurement": "time lung homogenate concentration above VeroE6 IC50 levels", "setting": "[5]; single dose 200 mg/kg, mice", "value": 5, "unit": "h"}, {"measurement": "time plasma concentration above IC50 levels for antiviral activity (VeroE6/TMPRSS2)", "setting": "[5]; single dose 200 mg/kg, mice", "value": "more than 3 hours"}, {"measurement": "activity against the TY7-501 strain", "setting": "[6]", "value": "undiminished activity"}, {"measurement": "CC50", "setting": "in vitro [7]", "value": 29.4, "unit": "µM"}]}]}
